Laboratory results reported in patent US20250268980A1, “AN ANTICANCER THERAPY TARGETING RAS AND OTHER ONCOGENIC SIGNALS BY INHIBITION OF DYNAMIC BLEBBING AND/OR SEPTINS” (THE BOARD OF REGENTS OF THE UNIVERSITY OF TEXAS SYSTEM, priority 2022, published 2025).

Legend:
PI3K = PI3K activity with Akt-PH-GFP biosensor in MV3 cells; assay type: cell-based, human; settings: rounded, poorly-adhered MV3 cells
Description: Cells Embedded in 3D Collagen.
Cells Grown in VitroGel Coffins. VitroGel coffins were prepared by embedding MV3 or A375 cells in VitroGel 3D or RGD at 1:1 dilution according to manufacturer's instructions (TheWell Biosciences, sku #TWG001). […] A 1:1 solution of VitroGel and VitroGel Dilution Solution was made and added to cell suspension at a ratio of 4:1 (VitroGel: cells) using gentle pipetting until well-mixed (with care taken not to form bubbles). Cell/VitroGel solution was transferred to an 8-well uncoated ibidi μ-slide (ibidi cat #80821) at 100 μl/well, spread over the bottom of wells with a pipette tip, and allowed to polymerize at room temperature for 15 minutes. […]
Cortical septin levels were quantified by measuring the mean cytoplasmic intensity of each cell using hand-drawn ROIs that excluded nuclei (performed with the FIJI ImageJ package), and then calculating for each cell its fraction of cortical voxels (intracellular voxels within 0.96 μm of the u-Shape3D-derived surface) that were higher than that cell's mean cytoplasmic intensity (performed using a MATLAB script). […] To quantify PI3K biosensor fluorescence signal, cells were segmented with u-shape3D and the intracellular signal was summed across the z-axis to yield a sum projection image (performed with the FIJI ImageJ package). […]

ERK = ERK activity assay with ERK-nKTR-GFP biosensor in MV3 cells; assay type: cell-based, human
Description: (§1) Detached/Adhered Cell Culture. […] Drug treatments, solvent-only controls, or CellEvent caspase activity sensor were added to suspensions if appropriate to the experiment, and then immediately transferred to both an uncoated (for detached cells) and ibiTreated (for adhered cells) 8-well ibidi u-slide (ibidi cat #80821 and 80826) at 200 μl/well. Both slides were stored at 37° C. and 5% CO2 for either 24 hours (hrs) for viability assays, 3 hrs for ERK activity assays or 4 hours for caspase activation assays. Uncoated slides (detached) were nutated at 20 rpm during this time. […]
(§2) Viability, ERK Activity, and Caspase ActivityCell Counting Assays. Viability, ERK activity, and caspase activity assays were analyzed using live-cell fluorescent and phase-contrast microscopy, performed on a Nikon Ti microscope equipped with an environmental chamber held at 37° C. and 5% CO2 at 20× magnification. […] Live and dead cells (as identified by significant cellular ethidium signal) were counted using the Cell Counter ImageJ plugin. For ERK activity assays, live cells carrying ERK-nKTR-GFP and H2B-mCherry were imaged after 3 hours of experimental conditions and high/low ERK activity cells were counted with Cell Counter ImageJ plugin. […] Caspase positive and negative cells (as identified by significant cellular CellEvent signal) were counted using the Cell Counter ImageJ plugin.

[1] = tested on: septin structures in MV3 melanoma xenografts; test: Septin foci at invasive front of MV3 SEPT6-GFP xenograft tumors (ctASLM); assay type: in vivo, NOD SCID mice; settings: mice with MV3 SEPT6-GFP tumors, FCF via oral gavage
From the text: NOD SCID mice were flank-injected with SEPT6-GFP-expressing MV3 melanoma cells to form xenograft tumors. Once tumors were palpable at injection sites they were dissected out with surrounding stroma, fixed, cleared, and imaged via cleared tissue axially-scanned lightsheet microscopy (ctASLM) to observe and quantify bleb formation and septin structure formation. As shown in FIG. 18A and FIG. 18B these in vivo experiments recapitulated in vitro results described previously, showing blebby morphologies with associated punctate septin structures (FIG. 18A). Importantly, this phenotype was exclusively observed at the invasive front of tumors, where cells lose contact to surrounding tissue, and not in the densely packed tumor core (FIG. 18B). These findings agree with previous research showing that blebby amoeboid-like cells are enriched at tumor invasive fronts. […] Furthermore, they support the idea that such bleb-associated septin signaling hubs are relevant in disease progression in human patients.
Specifically, FIG. 20A and FIG. 20B depict graphs illustrating the feasibility of anti-septin therapy in vivo. In triplicate experiments, mice growing tumors formed with SEPT6-GFP expressing MV3 melanoma cells (using the methods described in Example 8 above) were treated with FCF via oral gavage and septin structures were analyzed. […]

MV3 cells = test: Caspase activity assay (CellEvent Caspase-3/7) in MV3 cells; assay type: cell-based, human; settings: detached MV3 cells, 4 h, 10 μg/mL WGA
Description: as §1, §2

Compound	PI3K activity (PI3K)	ERK signaling (ERK; adhered MV3, 3 hours of FCF)	ERK activation (ERK; detached MV3, 3 hours of FCF)	intensity of septin foci at the invasive front [1]	number of septin foci at the invasive front [1]	caspase activation (MV3 cells)
O=C(Nc1ccccc1)Nc1ccnc(Cl)c1 [FCF, forchlorfenuron]	PI3K activity fell significantly	no difference in ERK signaling compared to controls	significantly reduced	dimmer	significantly fewer	–
wheat germ agglutinin [WGA]	–	–	–	–	–	consistent and specific increase of caspase activation
